Assay results from ChEMBL document CHEMBL4819013, “The giardicidal activity of lobendazole, fabomotizole, tenatoprazole and ipriflavone: A ligand-based virtual screening and in vitro study” (Eur J Med Chem, 2021).

Key:
Giardia intestinalis [1] = assay: Giardicidal activity against nitazoxanide-resistant Giardia intestinalis incubated for 48 hrs by hemocytometric counting method; assay type: functional, organism-based; settings: Giardia duodenalis
Giardia intestinalis [2] = assay: Giardicidal activity against Giardia intestinalis WB ATCC 30957 incubated for 48 hrs by hemocytometric counting method; assay type: functional, organism-based; settings: Giardia duodenalis, WB ATCC 30957, 48 h
Giardia intestinalis [3] = assay: Giardicidal activity against albendazole-resistant Giardia intestinalis incubated for 48 hrs by hemocytometric counting method; assay type: functional, organism-based; settings: Giardia duodenalis
Giardia intestinalis [4] = assay: Giardicidal activity against metronidazole-resistant Giardia intestinalis incubated for 48 hrs by hemocytometric counting method; assay type: functional, organism-based; settings: Giardia duodenalis
Giardia intestinalis [5] = assay: Giardicidal activity against Giardia intestinalis IMSS isolate incubated for 48 hrs by hemocytometric counting method; assay type: functional, organism-based; settings: Giardia duodenalis
Giardia intestinalis [6] = assay: Potency index, ratio of albendazole IC50 to test compound IC50 for Giardicidal activity against albendazole-resistant Giardia intestinalis incubated for 48 hrs by hemocytometric counting method; assay type: functional, Giardia duodenalis
Giardia intestinalis [7] = assay: Potency index, ratio of nitazoxanide IC50 to test compound IC50 for Giardicidal activity against nitazoxanide-resistant Giardia intestinalis incubated for 48 hrs by hemocytometric counting method; assay type: functional, Giardia duodenalis
Giardia intestinalis [8] = assay: Potency index, ratio of metronidazole IC50 to test compound IC50 for Giardicidal activity against metronidazole-resistant Giardia intestinalis incubated for 48 hrs by hemocytometric counting method; assay type: functional, Giardia duodenalis
Giardia intestinalis [9] = assay: Potency index, ratio of albendazole IC50 to test compound IC50 for Giardicidal activity against nitazoxanide resistant Giardia intestinalis incubated for 48 hrs by hemocytometric counting method; assay type: functional, Giardia duodenalis

SMILES	IC50 (Giardia intestinalis [1])	IC50 (Giardia intestinalis [2])	IC50 (Giardia intestinalis [3])	IC50 (Giardia intestinalis [4])	IC50 (Giardia intestinalis [5])	Ratio IC50 (Giardia intestinalis [6])	Ratio IC50 (Giardia intestinalis [7])	Ratio IC50 (Giardia intestinalis [8])	Ratio IC50 (Giardia intestinalis [9])
CCCSc1ccc2[nH]c(NC(=O)OC)nc2c1 [ALBENDAZOLE]	277 nM	47 nM	137 nM	–	–	–	–	–	–
CC(=O)Oc1ccccc1C(=O)Nc1ncc([N+](=O)[O-])s1 [NITAZOXANIDE]	1970 nM	18 nM	21 nM	17 nM	15 nM	–	–	–	–
COc1ccc2[nH]c([S+]([O-])Cc3ncc(C)c(OC)c3C)nc2n1 (stereo not given) [TENATOPRAZOLE]	49 nM	19 nM	27 nM	59 nM	20 nM	5	40	31	–
CCOc1ccc2nc(SCCN3CCOCC3)[nH]c2c1 [FABOMOTIZOLE]	65 nM	31 nM	50 nM	50 nM	29 nM	–	–	–	–
CC(C)Oc1ccc2c(=O)c(-c3ccccc3)coc2c1 [IPRIFLAVONE]	14 nM	34 nM	45 nM	510 nM	25 nM	–	–	–	–
Cc1ncc([N+](=O)[O-])n1CCO [METRONIDAZOLE]	–	–	1630 nM	1850 nM	–	–	–	–	–
CCOC(=O)Nc1nc2ccccc2[nH]1 [LOBENDAZOLE]	61 nM	85 nM	916 nM	200 nM	37 nM	–	32	–	4.5
